Reference: the supplement of paper PMC10307832

Legend:
Assay in all cases: relative viability (nuclei count vs DMSO), 5 days (fraction); higher = more cells survive
[1] = test system: BEN
Summary of the method: (§1)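 Relative viability equals treated-well nuclei counts divided by vehicle-well nuclei counts. Counts came from 4× images of lung cancer cell lines grown in 1536-well plates for 5 days after pin-tool dosing on the day after seeding. Dosing used one drug alone or a fixed anchor-drug dose plus five library-drug doses (not always all listed) in √10 steps, and values are medians of duplicate plates.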

[2] = test system: ChaGo-K-1
Summary of the method: as §1

[3] = test system: HCC-15
Summary of the method: as §1

[4] = test system: HCC-78
Summary of the method: as §1

[5] = test system: LC-2-ad
Summary of the method: as §1

[6] = test system: LCLC-97TM1
Summary of the method: as §1

[7] = test system: LK-2
Summary of the method: as §1

[8] = test system: LU99A
Summary of the method: as §1

[9] = test system: LXF-289
Summary of the method: as §1

[10] = test system: NCI-H1651
Summary of the method: as §1

[11] = test system: NCI-H1666
Summary of the method: as §1

SMILES: C=C1C(=O)O[C@@H](CCCCCCCC)[C@@H]1C(=O)O [C-75] + C[C@@H](Oc1cc(-c2cnn(C3CCNCC3)c2)cnc1N)c1c(Cl)ccc(F)c1Cl [Crizotinib] (partner 1 µM)
- relative viability ([1]; first compound 0.08 µM): 0.897
- relative viability ([1]; first compound 0.253 µM): 0.952
- relative viability ([1]; first compound 0.8 µM): 0.921
- relative viability ([1]; first compound 2.53 µM): 0.755
- relative viability ([1]; first compound 8 µM): 0.825
- relative viability ([2]; first compound 0.08 µM): 1.03
- relative viability ([2]; first compound 0.253 µM): 0.983
- relative viability ([2]; first compound 0.8 µM): 1.12
- relative viability ([2]; first compound 2.53 µM): 0.818
- relative viability ([2]; first compound 8 µM): 1.08
- relative viability ([3]; first compound 0.08 µM): 0.82
- relative viability ([3]; first compound 0.253 µM): 0.885
- relative viability ([3]; first compound 0.8 µM): 0.764
- relative viability ([3]; first compound 2.53 µM): 0.699
- relative viability ([3]; first compound 8 µM): 0.835
- relative viability ([4]; first compound 0.08 µM): 0.358
- relative viability ([4]; first compound 0.253 µM): 0.338
- relative viability ([4]; first compound 0.8 µM): 0.36
- relative viability ([4]; first compound 2.53 µM): 0.308
- relative viability ([4]; first compound 8 µM): 0.4
- relative viability ([5]; first compound 0.08 µM): 0.467
- relative viability ([5]; first compound 0.253 µM): 0.467
- relative viability ([5]; first compound 0.8 µM): 0.369
- relative viability ([5]; first compound 2.53 µM): 0.446
- relative viability ([5]; first compound 8 µM): 0.42
- relative viability ([6]; first compound 0.08 µM): 0.274
- relative viability ([6]; first compound 0.253 µM): 0.461
- relative viability ([6]; first compound 0.8 µM): 0.328
- relative viability ([6]; first compound 2.53 µM): 0.253
- relative viability ([6]; first compound 8 µM): 0.29
- relative viability ([7]; first compound 0.08 µM): 0.239
- relative viability ([7]; first compound 0.253 µM): 0.208
- relative viability ([7]; first compound 0.8 µM): 0.231
- relative viability ([7]; first compound 2.53 µM): 0.239
- relative viability ([7]; first compound 8 µM): 0.246
- relative viability ([8]; first compound 0.08 µM): 0.538
- relative viability ([8]; first compound 0.253 µM): 0.616
- relative viability ([8]; first compound 0.8 µM): 0.49
- relative viability ([8]; first compound 2.53 µM): 0.395
- relative viability ([8]; first compound 8 µM): 0.398
- relative viability ([9]; first compound 0.08 µM): 0.795
- relative viability ([9]; first compound 0.253 µM): 0.793
- relative viability ([9]; first compound 0.8 µM): 0.812
- relative viability ([9]; first compound 2.53 µM): 0.739
- relative viability ([9]; first compound 8 µM): 0.806
- relative viability ([10]; first compound 0.08 µM): 0.793
- relative viability ([10]; first compound 0.253 µM): 0.882
- relative viability ([10]; first compound 0.8 µM): 0.852
- relative viability ([10]; first compound 2.53 µM): 0.731
- relative viability ([10]; first compound 8 µM): 0.889
- relative viability ([11]; first compound 0.08 µM): 1.19
- relative viability ([11]; first compound 0.253 µM): 1.21
- relative viability ([11]; first compound 0.8 µM): 0.928
- relative viability ([11]; first compound 2.53 µM): 0.847
